Laboratory results published in patent US6337087B1, “Aqueous pharmaceutical composition comprising an active ingredient which is highly insoluble in water” (Aziende Chimiche Riunite Angelini Francesco A.C.R.A.F. …, priority 1997, dated 2002).
Converted amounts (≈) assume the structure as drawn.

Assay: initial solubility of the active ingredient
Format: physicochemical
Conditions: active ingredient without liposomes, aqueous

O=C(O)c1nn(Cc2ccc(Cl)cc2Cl)c2ccccc12 [lonidamine]
solubility: 3 µg/mL (≈ 9.34 µM)
